US20030129189A1, “Tumor necrosis factor-gamma” (priority 1994, published 2003)

Columns and labels:
Type in all cases: cell-based
[1] = test system: A-431; test: TNF-gamma activity on A-431 cells; design: key: The numbers of “+” indicate the relative level of activities.; ++: The numbers of “+” indicate the relative level of activities.; +++: The numbers of “+” indicate the relative level of activities.; “−” indicates no detected activity at the concentration range tested; settings: A-431, human epidermoid carcinoma
[2] = test system: bovine pulmonary artery endothelial cells (BPAEC); test: Endothelial cell apoptosis (morphology, Hoechst staining, DNA fragmentation); settings: BPAEC, 48 hours, Hoechst 33342
Procedure: [Bovine pulmonary artery endothelial cells were incubated with various concentrations of TNF-gamma for 48 hours. The apoptosis was assessed by nuclear staining with Hoechst 33342 fluorescence dye (10 mg/ml).] […] [U937 cells were transfected using lipofectamine (following manufacturer's instruction) with 0.2 mg of reporter plasmid (NF-kappaB-SEAP). The transfected U937 cells were collected and added to the 96-well plate ([…]/well) with various concentrated of TNF-gamma. After Incubation at 37° C. for 72 hr, the NF-kappaB activity was measured with luminometer at absorbance of 450 nm.]
Bovine pulmonary artery endothelia cells (BPAEC) were incubated with various concentrations of TNF-gamma for 48 hours. Apoptosis was assessed morphologically and by nuclear staining with Hoechst 33342 fluorescence dye (10 mg/ml) in triplicate. Live and apoptotic cells were scored in four random fields, about 1,000 cells were counted. The DNA fragmentation was analyzed as described previously.
BPAEC were obtained from the American Type Culture Collection (Rockville, Md., USA). The cells were grown in DMEM supplemented with 10% heat-inactivated FCS in a humidified environment of 5% CO2/[…] at 37° C. as previously described (Yue, T. L., et al., Mol. Pharmacol. 51:951-962 (1997)). Cells at a subconfluent density were used. Before experiments, the medium was changed to DMEM contained 2% FCS. BPAEC from passages 17-20 were used in all studies.
To quantify cells undergoing apoptosis, cell monolayers were fixed and stained with Hoechst […] (Molecular probe, Eugene, Oreg., USA) as described previously (Yue, T. L., et al., Mol. Pharmacol. 51:951-962 (1997)). The morphological features of apoptosis (cell shrinkage, chromatin condensation, blebbing, and fragmentation) were monitored by fluorescence microscopy. Transmission electron microscopy study was done as reported previously (Yue, T. L., et al., Mol. Pharmacol. 51:951-962 (1997)).
DNA ladder: Cells treated with vehicle or TNF-gamma-alpha were lysed in lysis buffer containing 100 mM NaCl, 10 mM Tris-HCl, pH 8.0, 2.5 mM EEDTA, 0.5% SDS, and 100 micrograms/ml […]. The lysates were incubated at 55° C. for 16 h. After incubation, the lysates were gently extracted three times with pheno/chloroform/isoamyl alcohol, precipitated in ethanol, treated with DNAse-free RNAse, re-extracted, and precipitated again as described previously. DNA electrophoresis was carried out in 1.8% agarose gels containing ethidium bromide, and DNA fragmentations were visualized under ultraviolet light.
In situ end-labeling (TUNEL): BPAEC were cultured in two-chamber slides (Nunc) and treated with TNF-gamma-alpha for 8 to 24 h. In situ detection of apoptotic cells was performed by using terminal deoxyribonucleotide transferase-mediated dUTP nick end labeling with an ApopTag in situ apoptosis detection kit (Oncor) following the manufacturer's recommendation.
The cells were plated in two-chamber slides. The cells were cotransfected with 0.5 μg/ml of Pegfp-c-1 (Clontech; Li, Y. and Horwitz, M. S. Biotechnology 23:1026-1028) as a fluorescent marker of transfected cells together with 1 μg/ml of either the empty cloning vector pcDNA1 (control) or the dominant-interfering c-Jun mutant pcDNA1-FlagΔ169 (Xia, Z., et al., Science 270:1326-1331 (1995)) using Calphos Maximizer Transfection Kit (Clontech) according to the manufacturer's recommendation. Following transfection, the cells were allowed to recover in complete medium for 24 h. The cells were treated with TNF-gamma-alpha and the number of apoptotic cells was assessed by nuclear staining after fixation as described in Methods.

[3] = test system: c-Jun kinase (JNK) in U-937 cells; test: JNK kinase activation assay; settings: 0.1 to 3.0 μg/ml
Procedure: The cellular kinase designated c-Jun kinase (JNK) is an early event in cellular activation. The activation of JNK by TNF-gamma was analyzed as an additional method of determining cellular reaction to treatment with TNF-gamma. The JNK kinase activation assay is well-known by one of skill in the art and has been described by Derijard and colleagues (Cell 76:1025-1029 (1994)). After treatment of U-937 cells with 0.1 to 3.0 μg/ml of TNF-gamma for 12 hours, the cells were harvested and assayed for JNK kinase activity. By 6 and 12 hours, JNK activity had increased 2- and 3.6-fold, respectively.

[4] = test system: Jurkat; test: TNF-gamma activity on Jurkat cells; design: key: The numbers of “+” indicate the relative level of activities.; ++: The numbers of “+” indicate the relative level of activities.; +++: The numbers of “+” indicate the relative level of activities.; “−” indicates no detected activity at the concentration range tested; settings: human T-cell lymphoma
Procedure: (§1) The adherent target cells were prepared from confluent cultures by trypsinization in PBS, and non-adherent target cells were harvested from stationary cultures and washed once with medium. Target cells were suspended at 3×10^5 cells/ml in medium containing 10% FCS. 0.1 ml aliquots were dispensed into 96-well flat-bottomed microtiter plates containing 0.1 ml serially diluted test samples of cells (WEHI 164 and L929). Incubation was continued for 70 hours. TNF-alpha, TNF-beta and bacterially-produced TNF-gamma were added at a 0.5 μg/ml concentration. The cytotoxicity and proliferation activity was quantified using an MTS assay performed by the addition of 20 μl of MTS and phenazine methosulfate (PMS) solution to each well. After a three hour incubation, the OD at 492 nm was measured by an ELISA plate reader. The OD492 is proportional to the number of viable cells in the wells. The percent of cytotoxicity was calculated as follows: […]. The photographs were taken after 72 hours.

[5] = test system: Raji; test: TNF-gamma activity on Raji cells; design: key: The numbers of “+” indicate the relative level of activities.; ++: The numbers of “+” indicate the relative level of activities.; +++: The numbers of “+” indicate the relative level of activities.; “−” indicates no detected activity at the concentration range tested; settings: human Burkitt's lymphoma
Procedure: as §1

## TNF-gamma: new member of the tumor necrosis factor family; the term refers to TNF-gamma-alpha and/or TNF-gamma-beta
[1]
  Adhesion: −−
  Differentiation: −−
  Proliferation: −
[2]
  apoptosis: induces apoptosis
[3]; by 6 hours
  increase in JNK activity: 2 fold
[3]; by 12 hours
  increase in JNK activity: 3.6 fold
[4]
  Adhesion: −−
  Differentiation: −−
  Proliferation: −
[5]
  Adhesion: −−
  Differentiation: −−
  Proliferation: −
